{"source": "the OPERA property sets (Mansouri et al. 2018)"}
{"compound": "CCCCC(CCC)C(=O)O", "note": "(stereo unspecified)", "logP": 3.01}
{"compound": "COC(=O)c1nc(NCC(O)CO)cnc1[N+](=O)[O-]", "note": "(stereo unspecified)", "logP": -0.1}
{"compound": "Cc1ccc(C(=O)c2ccc(CC(=O)O)n2C)cc1", "logP": 2.79}
{"compound": "CC1OC(OC2C(O)CC(OC3C(O)CC(OC4CCC5(C)C(CCC6C5CCC5(C)C(C7=CC(=O)OC7)C(O)CC65O)C4)OC3C)OC2C)CC(O)C1O", "note": "(stereo unspecified)", "logP": 1.67}
{"compound": "CCC(C(=O)OCc1ccccc1)C(COC(=O)c1cccc(Cl)c1)Cc1cncn1C", "note": "(stereo unspecified)", "logP": 5.08}
{"compound": "NNC(=O)c1ccnc(I)c1", "logP": 0.52}
{"compound": "O=C(NN1CC=CCC1)c1cccs1", "logP": 1.88}
{"compound": "CSC(C)=NOC(=O)N(C)SN(C)C(C)=O", "logP": 1.3}
{"compound": "O=C(c1c(F)cccc1F)c1ccc2n1CCC2C(=O)O", "note": "(stereo unspecified)", "logP": 2.47}
{"compound": "O=C1NC(=O)c2cc(-c3ccccc3)ccc21", "logP": 2.97}
{"compound": "O=C(O)c1ccc(O)c(Cl)c1", "logP": 2.41}
{"compound": "CCOCCNCC(O)COc1ccc(-c2ncc(-c3cccs3)[nH]2)cc1", "note": "(stereo unspecified)", "logP": 2.25}
{"compound": "CC(C)(C)c1ccc(C2C(=O)c3ccccc3C2=O)cc1", "logP": 4.88}
{"compound": "Cc1ncc(CO)c(CO)c1O", "logP": -0.77}
{"compound": "CC(=O)c1nc([N+](=O)[O-])n(CC(C)O)c1C", "note": "(stereo unspecified)", "logP": 0.37}
{"compound": "C=CC1CCC2OC2C1", "note": "(stereo unspecified)", "logP": 2.08}
{"compound": "CC(C)c1cccc(S(N)(=O)=O)c1", "logP": 1.81}
{"compound": "CCCCCCCc1ccncc1", "logP": 5}
{"compound": "Cc1ccc2[nH]c(=O)nc(-c3ccccc3)c2c1", "logP": 2.32}
{"compound": "O=C(c1ccc(F)cc1)c1ccc2n1CCC2C(=O)O", "note": "(stereo unspecified)", "logP": 2.82}
{"compound": "C=C(C)C(=O)OCC(O)COc1ccccc1", "note": "(stereo unspecified)", "logP": 2.27}
{"compound": "Cc1cccc(C)c1NC(=O)CCCN", "logP": 0.71}
{"compound": "O=C1NC(=O)C(c2ccccc2)C(=O)N1", "logP": -0.17}
{"compound": "c1ccc(C2CCNCC2)cc1", "logP": 2.39}
{"compound": "CC1(C)CC(=O)CC(C)(C)N1O", "logP": 0.12}
{"compound": "Nc1cccc(I)c1", "logP": 2.86}
{"compound": "CC(=O)Oc1cccc(OC(C)=O)c1C(N)=O", "logP": -0.62}
{"compound": "OC1(c2ccccc2Cl)CCCCC1n1cncn1", "note": "(stereo unspecified)", "logP": 2.68}
{"compound": "N=C(N)NN=Cc1ccccc1", "logP": 1.18}
{"compound": "CCCC(=O)OCC(Cc1cncn1C)C(CC)C(=O)OCc1ccccc1", "note": "(stereo unspecified)", "logP": 3.78}
{"compound": "COc1ccc(CCOC(=O)C(N)Cc2ccc(O)c(O)c2)cc1", "note": "(stereo unspecified)", "logP": 1.69}
{"compound": "CC[C@@H]1C(=O)OC[C@@H]1Cc1cncn1C", "logP": 0.12}
{"compound": "CCCOc1cc(Br)c(Cc2cnc(N)nc2N)cc1OC", "logP": 2.84}
{"compound": "CCN(CC)CCCCCC(=O)Nc1c(C)cccc1C", "logP": 2.95}
{"compound": "OC(Cn1ccnc1)(c1ccc(-c2ccccn2)cc1)c1ccc(F)cc1F", "note": "(stereo unspecified)", "logP": 3.65}
{"compound": "Nc1nc(-c2ccccn2)cc2ccccc12", "logP": 2.74}
{"compound": "CC1(C)[C@@H](O[C@H]2O[C@H](C(=O)O)[C@@H](O)[C@H](O)[C@H]2O[C@@H]2O[C@H](C(=O)O)[C@@H](O)[C@H](O)[C@H]2O)CC[C@]2(C)[C@H]3C(=O)C=C4[C@@H]5C[C@@](C)(C(=O)O)CC[C@]5(C)CC[C@@]4(C)[C@]3(C)CC[C@@H]12", "logP": 2.8}
{"compound": "Cc1c2ccccc2c(C)c2ccccc12", "logP": 5.69}
{"compound": "O=S(=O)(O)c1cccc2c(O)cccc12", "logP": -0.17}
{"compound": "CCC1OC(=O)C(C)C(OC2CC(C)(OC)C(O)C(C)O2)C(C)C(OC2OC(C)CC(N(C)C)C2O)C(C)(O)CC(C)C(=O)C(C)C(OC(C)=O)C1(C)O", "note": "(stereo unspecified)", "logP": 2.85}
{"compound": "CCOC(=O)C=COc1ccccc1", "logP": 3.18}
{"compound": "Cc1ccc(O)c(CO)c1", "logP": 0.97}
{"compound": "O=C(c1cccc(C(F)(F)F)c1)c1ccc2n1CCC2C(=O)O", "note": "(stereo unspecified)", "logP": 3.69}
{"compound": "COc1ccc(C(O)(Cn2ccnc2)c2ccc(-c3ccncc3)cc2)cc1", "note": "(stereo unspecified)", "logP": 3.55}
{"compound": "COc1c(OC)c(OC(C)=O)c2cc(NC(C)=O)ccc2c1OC(C)=O", "logP": 2}
{"compound": "O=C(Cn1ccnc1[N+](=O)[O-])N(CCO)CCO", "logP": -1.64}
{"compound": "Oc1ccc2[nH]ccc2c1", "logP": 1.11}
{"compound": "N#Cc1ccc(C[Se]CCC(=O)O)cc1", "logP": 1.37}
{"compound": "Cc1cc(C)c(O)c(C)c1", "logP": 2.73}
{"compound": "ClC1=C(Cl)C2(Cl)C3C4OC4C(Cl)C3C1(Cl)C2(Cl)Cl", "note": "(stereo unspecified)", "logP": 4.98}
{"compound": "C#CC1(O)C(F)CC2C3CCc4cc(O)ccc4C3C(OC)CC21C", "note": "(stereo unspecified)", "logP": 2.87}
{"compound": "CCCCCCCOC1OC(CO)C(O)C(O)C1O", "note": "(stereo unspecified)", "logP": 0.73}
{"compound": "CCN(CC)C(C)CCCC(=O)Nc1c(C)cccc1C", "note": "(stereo unspecified)", "logP": 2.64}
{"compound": "Cc1cc2c(ccc3ccc(=O)oc32)o1", "logP": 2.55}
{"compound": "COc1cc(OC)cc(C2C(=O)c3ccccc3C2=O)c1", "logP": 2.86}
{"compound": "CCCOC(=O)c1ccccc1Cl", "logP": 3.45}
{"compound": "C=C1C(=O)OC2C1C(OC(=O)C(C)=CC)CC(O)(CCl)C1C(OC(C)=O)C=C(C)C21O", "note": "(stereo unspecified)", "logP": 1.42}
{"compound": "O=C(O)C1CCc2cc(Cl)ccc2O1", "note": "(stereo unspecified)", "logP": 2.4}
{"compound": "CCC(O)(C(N)=O)c1ccccc1", "note": "(stereo unspecified)", "logP": 1.2}
{"compound": "OC1(c2ccc(Cl)cc2)CCCCCC1n1cncn1", "note": "(stereo unspecified)", "logP": 3.54}
{"compound": "O=C1C(Nc2ccccc2)=C(S(=O)(=O)c2ccccc2)C(=O)c2ccccc21", "logP": 3.38}
{"compound": "O=c1[nH]nc(-c2ccccc2)c2ccccc12", "logP": 2.48}
{"compound": "COC(=O)Nc1ccc(Cl)c(Cl)c1", "logP": 3.32}
{"compound": "Cc1ccccc1C(=O)c1ccc2n1CCC2C(=O)O", "note": "(stereo unspecified)", "logP": 2.9}
{"compound": "O=C(Cn1ccnc1[N+](=O)[O-])NCc1ccccc1", "logP": 0.91}
{"compound": "O=C(c1ccc(Cl)cc1Cl)c1ccc2n1CCC2C(=O)O", "note": "(stereo unspecified)", "logP": 3.56}
{"compound": "ClC(Cl)=C(c1ccc(Cl)cc1)c1ccc(Cl)cc1", "logP": 6.51}
{"compound": "CCCCc1ccc(CC(=O)O)cc1", "logP": 3.25}
{"compound": "COC1CC(OC2CCC3(C=O)C4CCC5(C)C(C6=CC(=O)OC6)CCC5(O)C4CCC3(O)C2)OC(C)C1O", "note": "(stereo unspecified)", "logP": 0.64}
{"compound": "CCCCCCCCC(C)(C)c1ccc(C2CCCC(O)C2)c(O)c1", "note": "(stereo unspecified)", "logP": 8.16}
{"compound": "Nc1ccn(C2OC(CCl)C(O)C2O)c(=O)n1", "note": "(stereo unspecified)", "logP": -1.05}
{"compound": "O=C1C2C3C=CC(C4C=CC43)C2C(=O)N1CCCCN1CCN(c2ncccn2)CC1", "note": "(stereo unspecified)", "logP": 1.79}
{"compound": "Cc1nc2n(c(=O)c1C)CCCC2", "logP": 0.6}
{"compound": "C[C@@H]1Cc2c(Cl)cc(C(=O)N[C@@H](Cc3ccccc3)C(=O)O)c(O)c2C(=O)O1", "logP": 4.74}
{"compound": "Cc1ncc(NS(=O)(=O)c2ccc(N)cc2)c(C)n1", "logP": 0.59}
{"compound": "Cc1cn([C@H]2C=C[C@@H](CO)O2)c(=O)[nH]c1=O", "logP": -0.72}
{"compound": "CCCCc1cc(OC)c(CC(C)N)cc1OC", "note": "(stereo unspecified)", "logP": 4}
{"compound": "CC1c2nc3ccccc3c(=O)n2CN1Cc1ccccc1", "note": "(stereo unspecified)", "logP": 1.72}
{"compound": "CCc1ccc(C)cc1", "logP": 3.63}
{"compound": "CCCCOCC(O)Cn1ccnc1[N+](=O)[O-]", "note": "(stereo unspecified)", "logP": 1.11}
{"compound": "Cc1cnc(NS(=O)(=O)c2ccc(N)cc2)nc1", "logP": 0.34}
{"compound": "CCCCn1c(=O)n(C)c(=O)c2[nH]cnc21", "logP": 1.29}
{"compound": "OC(Cn1ccnc1)(c1ccc(F)cc1)c1ccc(-c2ccccn2)cc1", "note": "(stereo unspecified)", "logP": 3.58}
{"compound": "CCN(CC)CCCCCCC(=O)Nc1c(C)cccc1C", "logP": 3.48}
{"compound": "O=C(O)c1ccc(Cl)cc1Nc1cccc(Cl)c1", "logP": 5}
{"compound": "Nc1c([N+](=O)[O-])ccc2ncccc12", "logP": 1.61}
{"compound": "Cc1cc(C)cc(NS(=O)(=O)c2ccc(N)cc2)c1", "logP": 2.52}
{"compound": "c1ccc(CC2=NCCN2)cc1", "logP": 2.65}
{"compound": "Cc1cnc2n(c1=O)C(C)CCC2", "note": "(stereo unspecified)", "logP": 0.82}
{"compound": "CCC(N)C(=O)Nc1c(C)cccc1C", "note": "(stereo unspecified)", "logP": 0.84}
{"compound": "O=C(COc1ccc(OCCNCC(O)COc2ccccc2)cc1)NCCCO", "note": "(stereo unspecified)", "logP": 0.5}
{"compound": "CCC(=O)OC(C(=O)NC12CC3CC(CC(C3)C1)C2)c1ccccc1", "note": "(stereo unspecified)", "logP": 3.72}
{"compound": "CCCC(=O)c1ccccc1", "logP": 2.77}
{"compound": "CCC(C(=O)OCc1ccccc1)C(COC(=O)c1ccccc1)Cc1cncn1C", "note": "(stereo unspecified)", "logP": 4.37}
{"compound": "Nc1ncc(Cc2cc3c(cc2Br)OCO3)c(N)n1", "logP": 2.48}
{"compound": "CC(=O)OCC1SC(n2ccnc2[N+](=O)[O-])C(OC(C)=O)C(OC(C)=O)C1OC(C)=O", "note": "(stereo unspecified)", "logP": 0.63}
